In patent US11420958B2, “Aryl and heteroaryl substituted indole compounds” (BRISTOL-MYERS SQUIBB COMPANY, priority 2017, dated 2022) one finds IC50 data, which are given here for 18 compounds.

What all share (assay type): cell-based
Experiment [1] concerns the target human TLR9 (Homo sapiens (Human), UniProt Q9NR96). Put plainly: TLR9 inhibition reporter assay (HEK-Blue, SEAP). To be noted: HEK-Blue cells overexpressing human TLR9, ODN2006 5 nM stimulation. Put shortly: (§1)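 After 30 min room-temperature pre-incubation with compound (0.05 nM–50 μM), reporter HEK-Blue lines were activated by ODN2006 5 nM for TLR9, R848 15.9 μM for TLR8 or gardiquimod 7.5 μM for TLR7. SEAP detected after 22 h, 37 °C; inhibition scaled between agonist+DMSO wells and known-inhibitor control.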

Experiment [2] concerns the target human TLR8 (Homo sapiens (Human), UniProt Q9NR97). Description: TLR8 inhibition reporter assay (HEK-Blue, SEAP). To be noted: HEK-Blue cells overexpressing human TLR8, R848 15.9 μM stimulation. The method, boiled down:
as §1

For experiment [3], the target named is human TLR7 (Homo sapiens (Human), UniProt Q9NYK1). Description: TLR7 inhibition reporter assay (HEK-Blue, SEAP). To be noted: HEK-Blue cells overexpressing human TLR7, gardiquimod 7.5 μM stimulation. The method, boiled down:
as §1

Chain of human TLR7 (Q9NYK1 27-1049): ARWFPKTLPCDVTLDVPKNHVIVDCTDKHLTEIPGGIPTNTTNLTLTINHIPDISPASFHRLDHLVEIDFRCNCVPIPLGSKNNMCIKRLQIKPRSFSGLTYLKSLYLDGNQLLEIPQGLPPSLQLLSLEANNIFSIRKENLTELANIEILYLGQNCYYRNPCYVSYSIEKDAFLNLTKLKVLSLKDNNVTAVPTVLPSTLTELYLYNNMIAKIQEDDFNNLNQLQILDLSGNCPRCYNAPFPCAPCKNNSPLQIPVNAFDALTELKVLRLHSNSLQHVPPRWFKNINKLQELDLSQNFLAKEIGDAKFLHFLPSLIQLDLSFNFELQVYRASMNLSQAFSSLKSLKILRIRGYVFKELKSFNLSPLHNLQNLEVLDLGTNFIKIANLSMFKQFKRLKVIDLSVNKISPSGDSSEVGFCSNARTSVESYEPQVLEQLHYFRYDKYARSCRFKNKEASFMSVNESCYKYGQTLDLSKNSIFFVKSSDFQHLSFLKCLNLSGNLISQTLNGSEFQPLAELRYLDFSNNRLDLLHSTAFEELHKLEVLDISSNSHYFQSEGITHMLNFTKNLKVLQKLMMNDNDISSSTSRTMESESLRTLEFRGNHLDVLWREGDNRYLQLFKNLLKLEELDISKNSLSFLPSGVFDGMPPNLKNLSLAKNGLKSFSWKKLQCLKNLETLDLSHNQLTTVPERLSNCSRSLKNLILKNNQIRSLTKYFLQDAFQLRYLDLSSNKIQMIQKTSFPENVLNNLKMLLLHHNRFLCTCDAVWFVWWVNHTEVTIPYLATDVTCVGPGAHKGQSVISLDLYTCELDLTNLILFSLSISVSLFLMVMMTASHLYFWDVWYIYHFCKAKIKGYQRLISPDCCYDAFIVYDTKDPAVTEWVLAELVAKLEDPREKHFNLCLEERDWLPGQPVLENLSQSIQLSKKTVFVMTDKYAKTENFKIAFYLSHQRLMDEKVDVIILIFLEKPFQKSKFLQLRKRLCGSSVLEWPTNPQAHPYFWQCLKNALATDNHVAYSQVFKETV
Chain of human TLR9 (Q9NR96 26-1032): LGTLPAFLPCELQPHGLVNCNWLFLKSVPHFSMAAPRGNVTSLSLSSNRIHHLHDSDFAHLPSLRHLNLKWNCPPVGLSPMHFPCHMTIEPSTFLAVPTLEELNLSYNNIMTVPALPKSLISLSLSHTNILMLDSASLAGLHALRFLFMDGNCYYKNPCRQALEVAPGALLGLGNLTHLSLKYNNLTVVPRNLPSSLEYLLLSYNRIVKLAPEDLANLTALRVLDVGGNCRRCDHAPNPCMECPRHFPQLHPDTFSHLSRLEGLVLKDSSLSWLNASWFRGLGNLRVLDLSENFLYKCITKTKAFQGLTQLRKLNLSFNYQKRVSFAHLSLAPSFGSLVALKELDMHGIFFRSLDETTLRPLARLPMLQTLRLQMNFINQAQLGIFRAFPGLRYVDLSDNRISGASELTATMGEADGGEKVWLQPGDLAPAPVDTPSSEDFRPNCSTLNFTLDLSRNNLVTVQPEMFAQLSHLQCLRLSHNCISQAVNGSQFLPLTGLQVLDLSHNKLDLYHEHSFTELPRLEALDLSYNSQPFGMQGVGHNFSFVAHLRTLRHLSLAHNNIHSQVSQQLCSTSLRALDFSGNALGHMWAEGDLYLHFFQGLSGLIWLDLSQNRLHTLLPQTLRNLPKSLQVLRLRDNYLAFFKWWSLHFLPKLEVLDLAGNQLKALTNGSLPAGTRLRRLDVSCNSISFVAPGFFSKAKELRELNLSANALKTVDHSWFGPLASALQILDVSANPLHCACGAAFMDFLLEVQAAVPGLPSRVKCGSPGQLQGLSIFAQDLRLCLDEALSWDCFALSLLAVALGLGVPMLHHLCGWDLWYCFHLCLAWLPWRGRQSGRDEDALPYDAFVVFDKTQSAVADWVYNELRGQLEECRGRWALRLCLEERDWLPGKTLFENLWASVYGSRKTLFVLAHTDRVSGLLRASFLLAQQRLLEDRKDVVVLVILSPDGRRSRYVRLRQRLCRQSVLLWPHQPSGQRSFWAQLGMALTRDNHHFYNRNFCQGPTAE
Chain of human TLR8 (Q9NR97 27-1041): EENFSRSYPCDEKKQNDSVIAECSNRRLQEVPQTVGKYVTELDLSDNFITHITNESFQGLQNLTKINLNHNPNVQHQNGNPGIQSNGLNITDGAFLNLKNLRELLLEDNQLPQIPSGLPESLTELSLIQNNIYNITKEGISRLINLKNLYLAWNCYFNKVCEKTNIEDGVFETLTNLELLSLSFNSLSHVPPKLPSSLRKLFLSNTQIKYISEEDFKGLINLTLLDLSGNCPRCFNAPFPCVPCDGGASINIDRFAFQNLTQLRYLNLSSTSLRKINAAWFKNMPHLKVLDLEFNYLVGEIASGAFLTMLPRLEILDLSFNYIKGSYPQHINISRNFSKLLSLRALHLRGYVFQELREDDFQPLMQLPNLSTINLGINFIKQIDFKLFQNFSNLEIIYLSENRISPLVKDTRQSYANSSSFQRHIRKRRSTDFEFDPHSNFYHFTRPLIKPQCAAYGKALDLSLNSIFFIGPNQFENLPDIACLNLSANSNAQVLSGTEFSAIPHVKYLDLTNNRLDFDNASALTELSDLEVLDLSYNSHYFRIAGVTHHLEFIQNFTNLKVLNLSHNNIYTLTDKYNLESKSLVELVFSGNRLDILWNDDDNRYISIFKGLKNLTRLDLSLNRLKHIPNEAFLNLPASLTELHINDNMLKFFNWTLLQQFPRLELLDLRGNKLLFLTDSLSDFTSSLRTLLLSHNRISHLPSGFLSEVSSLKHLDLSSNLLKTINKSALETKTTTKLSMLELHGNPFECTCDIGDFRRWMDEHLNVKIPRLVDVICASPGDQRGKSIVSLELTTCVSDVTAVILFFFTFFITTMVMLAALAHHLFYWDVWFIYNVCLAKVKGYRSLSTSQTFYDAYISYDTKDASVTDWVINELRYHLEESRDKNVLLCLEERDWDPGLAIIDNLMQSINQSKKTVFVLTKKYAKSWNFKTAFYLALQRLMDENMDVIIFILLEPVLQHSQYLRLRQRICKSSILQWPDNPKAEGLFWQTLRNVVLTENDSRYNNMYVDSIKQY

With `Cc1cc(-c2[nH]c3ccc(-c4ccnc(N5CCN(C(C)C)CC5)c4)cc3c2C(C)C)cc(C)n1` [Example 326, 2-(2,6-dimethylpyridin-4-yl)-3-isopropyl-5-(2-(4-isopropylpiperazin-1-yl)pyridin-4-yl)-1H-indole], the 50% inhibitory concentration (IC50) in experiment [1] is 303 nM; in experiment [2], 13 nM; in experiment [3] it was 23 nM.
For `Cc1cc(-c2[nH]c3ccc(-c4nnc(C5CCCN(C(C)C)C5)o4)cc3c2CC(F)F)cc(C)n1` (stereo not drawn) [Example 327, 2-(3-(2,2-difluoroethyl)-2-(2,6-dimethylpyridin-4-yl)-1H-indol-5-yl)-5-(1-isopropylpiperidin-3-yl)-1,3,4-oxadiazole], in that order: 216 nM, 10 nM and 26 nM.
For `Cc1cc(-c2[nH]c3ccc(-c4nnc(C5CCCN(C(C)C)C5)o4)cc3c2CC(F)F)cc(C)n1` (stereo not drawn) [Example 328, 2-(3-(2,2-difluoroethyl)-2-(2,6-dimethylpyridin-4-yl)-1H-indol-5-yl)-5-(1-isopropylpiperidin-3-yl)-1,3,4-oxadiazole], in that order: 206 nM, 30 nM and 48 nM.
The like results for `Cc1cc(-c2[nH]c3ccc(-c4nc5c(s4)CCN(CC(=O)N(C)C)C5)cc3c2C(C)C)cc(C)n1` [Example 329, 2-(2-(2-(2,6-dimethylpyridin-4-yl)-3-isopropyl-1H-indol-5-yl)-6,7-dihydrothiazolo[4,5-c]pyridin-5(4H)-yl)-N,N-dimethylacetamide] were, in that order, 46700 nM, 3.3 nM and 20 nM.
Turning to `CNC(=O)CN1CCc2cc(-c3ccc4[nH]c(-c5cc(C)nc(C)c5)c(C(C)C)c4c3)sc2C1` [Example 330, 2-(2-(2-(2,6-dimethylpyridin-4-yl)-3-isopropyl-1H-indol-5-yl)-4,7-dihydrothieno[2,3-c]pyridin-6(5H)-yl)-N-methylacetamide], the IC50 in experiment [1] worked out at 2210 nM; in experiment [2] it was 16 nM; in experiment [3], 23 nM.
As to `CNCC(=O)N1CCc2cc(-c3ccc4[nH]c(-c5cc(C)nc(C)c5)c(C(C)C)c4c3)sc2C1` [Example 331, 1-(2-(2-(2,6-dimethylpyridin-4-yl)-3-isopropyl-1H-indol-5-yl)-4,7-dihydrothieno[2,3-c]pyridin-6(5H)-yl)-2-(methylamino)ethan-1-one], the half-inhibitory concentration (IC50) was found to be 945 nM in experiment [1], 4.9 nM in experiment [2] and 5.2 nM in experiment [3].
For `Cc1cn2cc(-c3[nH]c4ccc(-c5ccc(N6CCN(C)CC6)nc5)cc4c3C(C)C)ccc2n1` [Example 333, 6-(3-isopropyl-5-(6-(4-methylpiperazin-1-yl)pyridin-3-yl)-1H-indol-2-yl)-2-methylimidazo[1,2-a]pyridine], in that order: 114 nM, 91 nM and 14 nM.
In the case of `Cc1cn2cc(-c3[nH]c4ccc(-c5ccc(N6CCNCC6)nc5)cc4c3C(C)C)ccc2n1` [Example 334, 6-(3-isopropyl-5-(6-(piperazin-1-yl)pyridin-3-yl)-1H-indol-2-yl)-2-methylimidazo[1,2-a]pyridine], the figures for the IC50 in experiment [1], in experiment [2] and in experiment [3] were 672 nM, 214 nM and 45 nM, respectively.
For `Cc1cc(-c2[nH]c3ccc(-c4ccc(N5CC(C)OC(C)C5)nc4)cc3c2C(C)C)cc(C)n1` (stereo not drawn) [Example 335, 4-(5-(2-(2,6-dimethylpyridin-4-yl)-3-isopropyl-1H-indol-5-yl)pyridin-2-yl)-2,6-dimethylmorpholine], in that order: 38100 nM, 106 nM and 166 nM.
On to `Cc1cc(-c2[nH]c3ccc(-c4ccc(N5CCCC5)nc4)cc3c2C(C)C)cc(C)n1` [Example 336, 2-(2,6-dimethylpyridin-4-yl)-3-isopropyl-5-(6-(pyrrolidin-1-yl)pyridin-3-yl)-1H-indole], for which the IC50 in experiment [1] amounted to 2340 nM; in experiment [2], 15 nM; in experiment [3], 41 nM.
For `Cc1cc(-c2[nH]c3ccc(-c4ccc(N5CCC(N(C)C)CC5)nc4)cc3c2C(C)C)cc(C)n1` [Example 337, 1-(5-(2-(2,6-dimethylpyridin-4-yl)-3-isopropyl-1H-indol-5-yl)pyridin-2-yl)-N,N-dimethylpiperidin-4-amine], in that order: 220 nM, 4.9 nM and 6.7 nM.
The like results for `Cc1cc(-c2[nH]c3ccc(-c4ccc(N5CCC5)nc4)cc3c2C(C)C)cc(C)n1` [Example 338, 5-(6-(azetidin-1-yl)pyridin-3-yl)-2-(2,6-dimethylpyridin-4-yl)-3-isopropyl-1H-indole] were, in that order, 46500 nM, 31 nM and 18 nM.
The like results for `Cc1cc(-c2[nH]c3ccc(-c4ccc(N5CCN(CCO)CC5)nc4)cc3c2C(C)C)cc(C)n1` [Example 339, 2-(4-(5-(2-(2,6-dimethylpyridin-4-yl)-3-isopropyl-1H-indol-5-yl)pyridin-2-yl)piperazin-1-yl)ethan-1-ol] were, in that order, 523 nM, 5.4 nM and 8.3 nM.
As for `Cc1cc(-c2[nH]c3ccc(-c4nnc(C5CCCN(C(C)C)C5)[nH]4)cc3c2C(C)C)cc(C)n1` (stereo not drawn) [Example 340, 2-(2,6-dimethylpyridin-4-yl)-3-isopropyl-5-(5-(1-isopropylpiperidin-3-yl)-4H-1,2,4-triazol-3-yl)-1H-indole], the IC50 was 262 nM in experiment [1], 3.6 nM in experiment [2] and 4 nM in experiment [3].
For `Cc1cc(-c2[nH]c3ccc(-c4cc5c(s4)CN(C(=O)CN(C)C)CC5)cc3c2C(C)C)cc(C)n1` [Example 341, 2-(dimethylamino)-1-(2-(2-(2,6-dimethylpyridin-4-yl)-3-isopropyl-1H-indol-5-yl)-4,7-dihydrothieno[2,3-c]pyridin-6(5H)-yl)ethan-1-one], in that order: 295 nM, 5.9 nM and 6.4 nM.
The like results for `Cc1cc(-c2[nH]c3ccc(-c4cc5c(s4)CN(CC(=O)N(C)C)CC5)cc3c2C(C)C)cc(C)n1` [Example 342, 2-(2-(2-(2,6-dimethylpyridin-4-yl)-3-isopropyl-1H-indol-5-yl)-4,7-dihydrothieno[2,3-c]pyridin-6(5H)-yl)-N,N-dimethylacetamide] were, in that order, 1330 nM, 8.9 nM and 19 nM.
The like results for `Cc1cc(-c2[nH]c3ccc(-c4cc5c(s4)CN(Cc4c[nH]c(C)n4)CC5)cc3c2C(C)C)cc(C)n1` [Example 343, 2-(2-(2,6-dimethylpyridin-4-yl)-3-isopropyl-1H-indol-5-yl)-6-((2-methyl-1H-imidazol-4-yl)methyl)-4,5,6,7-tetrahydrothieno[2,3-c]pyridine] were, in that order, 146 nM, 1.3 nM and 3.7 nM.
For `Cc1cc(-c2[nH]c3ccc(-c4ccnc(C5CCNCC5)c4)cc3c2C(C)C)cc(C)n1` [Example 344, 2-(2,6-dimethylpyridin-4-yl)-3-isopropyl-5-(2-(piperidin-4-yl)pyridin-4-yl)-1H-indole], the values for the IC50 in experiment [1], in experiment [2] and in experiment [3] were 181 nM, 7.9 nM and 5 nM, respectively.
